These results are taken from EP2727627B1, “Oral and dental care and cleaning agents with Tocopherol acetate” (priority 2012, dated 2014).

Data set [1] has as its system Gingiva Fibroblasten. As to the kind of experiment: ATP determination with ATPLite-M assay (cell energy content). The format is cell-based. An excerpt: ATP (Adenosintriphosphat) ist die universelle Speicherform für chemische Energie in Zellen. Die ATP-Bestimmung erfolgt mit Hilfe des ATPLiteTM-M Assays (Packard). Das Testprinzip dieses Assays beruht darauf, dass die Luciferase von Photinus pyralis eine Reaktion katalysiert, bei der in Gegenwart von ATP D-Luciferin in Oxyluciferin umgewandelt wird. Bei dieser Reaktion wird grünes Licht emittiert, das mit einem Luminometer gemessen werden kann. Das emittierte Biolumineszenzlicht ist proportional zur Menge des vorhandenen ATP. Zur Bestimmung der ATP-Aktivität in Gingiva Fibroblasten werden diese in geeigneter Weise unter Erhalt ihrer spezifischen Eigenschaften vorkultiviert (DE10162814) und in eine 96well-Zellkulturschale überführt. Die Behandlung mit dem Substanzgemisch erfolgte über 24 Stunden gegen eine unbehandelte Kontrolle. Anschließend wurden die Zellen mit jeweils 50 µl/Kavität eines im Testkit enthaltenen Lysepuffer für 5 min auf einem Schüttler lysiert. Danach wurden die Zellen für weitere 5 min mit jeweils 50 µl/Kavität mit der mitgelieferten Substratlösung auf dem Schüttler inkubiert und anschließend das Reaktionsgemisch in eine schwarze Mikrotiterplatte überführt. Nach einer Inkubationszeit von 10 min in der Dunkelheit erfolgte die Messung. Tabelle 2: Einfluss von Tocopherylacetat auf den Zellenergieinhalt

Data set [2] has as its system Gingiva Fibroblasten. As to the kind of experiment: WST-1 vitality test (metabolic activity). In kind it is cell-based. The settings on record: for Vitalität [%] Mittelwert: 24 h incubation, untreated control = 100 %, mean of 6.
Description: Als Maß für die Vitalität kann die metabolische Aktivität von Gingiva Fibroblasten nach Inkubation mit Tocopherylacetat gemessen werden. Das chromogene Tetrazoliumsalz WST-1 wird durch stoffwechselaktive Succinatdehydrogenasen lebender Zellen reduktiv aufgespalten, wobei ein wasserlösliches Formazansalz entsteht. Durch UV/VIS-spektroskopische Vermessung der Absorptionsintensität kann die Konzentration der intermediär gebildeten Formazansalze bestimmt werden, welche in Korrelation zur Aktivität der Succinatdehydrogenase steht.
(§1) Der WST-Vitalitätstest wurde in einer 96-Well Mikrotiterplatte in 6-fach Bestimmung durchgeführt. Dafür wurde pro Well eine definierte Zellzahl von Gingiva Fibroplasten in einem Volumen von 50 µl (microliter) ausgesät. Anschließend wurde Tocopherylacetat in absteigenden Konzentrationen dazugegeben. Nach 24 Stunden Inkubation wurden 10 µl des in Medium verdünnten Tetrazolium-Salzes WST-1 zu jedem Ansatz pipettiert. Es folgte eine dreistündige Inkubation bei 37°C und 5 % Kohlenstoffdioxid, bevor die Absorption bei einer Wellenlänge von 450 nm (Referenzwellenlänge 650 nm) in einem Spektrometer (ELISA-Reader) gemessen wurde. Die Werte der unbehandelten Kontrolle wurden gleich 100 % gesetzt und die Werte der behandelten Proben darauf bezogen.
Für jede Tocopherylacetat-Konzentration wurde eine 6-fach Bestimmung durchgeführt, aus den 6 Messwerten wurde jeweils der Mittelwert gebildet.
as §1, with “37 °C” for “37°C”

[3] abbreviates: low concentrations, Gingiva-Zellen, result in words.
Setting [4] is: Fibroblast, 24 h, read-out: Vitalität [%] Mittelwert.

Turning to `CC(=O)Oc1c(C)c(C)c2c(c1C)CCC(C)(CCCC(C)CCCC(C)CCCC(C)C)O2` (stereo not shown) [Tocopherylacetat], the activity at 0.01 % with Gingiva Fibroblasten [1] (Fibroblast, Konz. 0,01 Gew.-%, 24 h treatment, versus untreated control (100,0), read-out: ATP-Gehalt [%] Mittelwert) is 128%. Also, the activity at 0.0025 % in the data set with Gingiva Fibroblasten [1] (Fibroblast, Konz. 0,0025 Gew.-%, 24 h treatment, versus untreated control (100,0), read-out: ATP-Gehalt [%] Mittelwert) is 125%. The activity at 0.005 % in the data set on Gingiva Fibroblasten [1] (Fibroblast, Konz. 0,005 Gew.-%, 24 h treatment, versus untreated control (100,0), read-out: ATP-Gehalt [%] Mittelwert) was 139%. Besides, the ATP-Gehalt entry with Gingiva Fibroblasten [1] (setting [3]) is on record as “signifikanten Steigerung des ATP-Gehaltes”. For the same molecule, in the data set with Gingiva Fibroblasten [2] (setting [4]), the viability at 0.0005 % was determined as 133%, the viability at 0.001 % turned out to be 141%, the viability at 0.005 % was found to be 138% and the viability at 0.01 % was 150%. In the data set on Gingiva Fibroblasten [2] (Konz. 0,01 Gew.-%), the “Vitalität [%] Mittelwert” value was 150,5%. For the same molecule, the “Vitalität [%] Mittelwert” value in the data set with Gingiva Fibroblasten [2] (Konz. 0,0005 Gew.-%) is reported as 132,9%. Moreover, the “Vitalität [%] Mittelwert” value in the data set with Gingiva Fibroblasten [2] (Konz. 0,001 Gew.-%) is 141,4%. In addition, the “Vitalität [%] Mittelwert” value in the data set on Gingiva Fibroblasten [2] (Konz. 0,005 Gew.-%) was 137,7%. The Vitalität entry in the data set with Gingiva Fibroblasten [2] (setting [3]) is listed as “signifikanten Steigerung der Vitalität”.
